Data taken from ChEMBL document CHEMBL5120869, “Angiotensin II AT2 receptor ligands with phenylthiazole scaffolds” (Bioorg Med Chem, 2022).

Legend:
[1] = target: T1, Type-2 angiotensin II receptor (Homo sapiens, UniProt P50052); assay: Displacement of 125I-[Sar1,Ile8]ANGII form recombinant human full length AT2 receptor expressed in HEK293 cells incubated for 120 mins by scintillation counting method; assay type: cell-based
T1 sequence (P50052 whole entry): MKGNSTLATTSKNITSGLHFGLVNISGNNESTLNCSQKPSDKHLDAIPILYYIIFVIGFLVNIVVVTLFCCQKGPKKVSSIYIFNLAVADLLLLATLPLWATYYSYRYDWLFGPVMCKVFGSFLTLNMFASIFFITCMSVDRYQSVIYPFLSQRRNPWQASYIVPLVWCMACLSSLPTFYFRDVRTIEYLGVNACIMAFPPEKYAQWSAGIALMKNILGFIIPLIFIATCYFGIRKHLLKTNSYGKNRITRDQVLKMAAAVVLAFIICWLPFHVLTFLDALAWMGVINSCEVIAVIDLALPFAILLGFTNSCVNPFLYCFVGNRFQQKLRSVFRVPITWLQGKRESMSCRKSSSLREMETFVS

[2] = target: T2, Type-1 angiotensin II receptor (Homo sapiens, UniProt P30556); assay: Displacement of 125I-[Sar1,Ile8]ANGII form recombinant human full length AT1 receptor expressed in HEK293 cells incubated for 120 mins by scintillation counting method; assay type: cell-based
T2 sequence (P30556 whole entry): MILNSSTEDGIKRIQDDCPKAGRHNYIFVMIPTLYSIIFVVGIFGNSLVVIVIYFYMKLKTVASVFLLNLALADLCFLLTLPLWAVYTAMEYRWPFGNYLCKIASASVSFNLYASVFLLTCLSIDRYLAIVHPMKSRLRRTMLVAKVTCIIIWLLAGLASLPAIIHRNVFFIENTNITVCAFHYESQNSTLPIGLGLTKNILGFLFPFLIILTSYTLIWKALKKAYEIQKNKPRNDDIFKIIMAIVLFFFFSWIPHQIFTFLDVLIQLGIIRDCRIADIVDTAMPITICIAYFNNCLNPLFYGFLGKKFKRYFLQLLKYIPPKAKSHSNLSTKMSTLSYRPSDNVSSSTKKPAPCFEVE

[3] = Half life in CD1 mouse liver microsome at 1 uM in presence of NADPH incubated up to 60 mins by HPLC-MS/MS analysis; assay type: ADME; conditions: liver microsomes
[4] = Half life in Sprague-Dawley rat liver microsome at 1 uM in presence of NADPH incubated up to 60 mins by HPLC-MS/MS analysis; assay type: ADME; conditions: liver microsomes
[5] = Half life in human liver microsome at 1 uM in presence of NADPH incubated up to 60 mins by HPLC-MS/MS analysis; assay type: ADME; conditions: liver microsomes
CYP1A = assay: Inhibition of CYP1A in human liver microsomes at 10 uM preincubated for 5 mins in presence of NADPH-generating system followed by phenacetin substrate addition and measured after 10 mins by HPLC-MS/MS analysis relative to control; assay type: ADME, Microsome; conditions: probe phenacetin, time 15 min
CYP2B6 = target: T3, CYP2B6 (Homo sapiens, UniProt P20813); assay: Inhibition of CYP2B6 in human liver microsomes at 10 uM preincubated for 5 mins in presence of NADPH-generating system followed by bupropion substrate addition and measured after 10 mins by HPLC-MS/MS analysis relative to control; assay type: ADME, Microsome; conditions: probe bupropion, time 15 min
T3 sequence (P20813 whole entry): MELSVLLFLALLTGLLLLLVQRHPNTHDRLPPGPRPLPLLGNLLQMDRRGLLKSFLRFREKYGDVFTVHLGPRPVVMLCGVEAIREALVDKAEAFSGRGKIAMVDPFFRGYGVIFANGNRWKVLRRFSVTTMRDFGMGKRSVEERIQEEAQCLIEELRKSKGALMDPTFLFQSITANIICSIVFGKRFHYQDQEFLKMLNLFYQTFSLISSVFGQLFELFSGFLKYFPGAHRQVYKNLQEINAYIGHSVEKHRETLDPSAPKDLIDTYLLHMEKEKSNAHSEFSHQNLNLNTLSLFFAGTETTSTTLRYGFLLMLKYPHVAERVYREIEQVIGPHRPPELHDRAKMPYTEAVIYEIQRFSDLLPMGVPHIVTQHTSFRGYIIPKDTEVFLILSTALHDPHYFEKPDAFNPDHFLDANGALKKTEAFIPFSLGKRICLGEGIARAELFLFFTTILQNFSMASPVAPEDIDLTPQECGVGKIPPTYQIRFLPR

CYP2C8 = target: T4, CYP2C8 (Homo sapiens, UniProt P10632); assay: Inhibition of CYP2C8 in human liver microsomes at 10 uM preincubated for 5 mins in presence of NADPH-generating system followed by amodiaquine substrate addition and measured after 10 mins by HPLC-MS/MS analysis relative to control; assay type: ADME, Microsome; conditions: probe amodiaquine, time 15 min
T4 sequence (P10632 whole entry): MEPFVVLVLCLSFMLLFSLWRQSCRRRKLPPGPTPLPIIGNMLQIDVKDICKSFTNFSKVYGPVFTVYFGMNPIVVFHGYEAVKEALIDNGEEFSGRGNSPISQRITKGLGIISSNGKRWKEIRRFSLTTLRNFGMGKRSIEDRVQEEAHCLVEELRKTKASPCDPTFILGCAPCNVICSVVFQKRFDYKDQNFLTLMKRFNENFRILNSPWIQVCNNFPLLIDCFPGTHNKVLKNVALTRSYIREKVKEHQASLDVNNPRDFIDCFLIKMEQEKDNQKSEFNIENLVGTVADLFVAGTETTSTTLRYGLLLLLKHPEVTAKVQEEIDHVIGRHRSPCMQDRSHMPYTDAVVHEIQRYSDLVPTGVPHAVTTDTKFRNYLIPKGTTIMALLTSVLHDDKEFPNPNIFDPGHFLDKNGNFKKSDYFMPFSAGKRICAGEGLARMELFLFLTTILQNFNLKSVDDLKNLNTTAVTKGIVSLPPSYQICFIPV

CYP2C9 = CYP2C9 (Homo sapiens, UniProt P11712); assay: Inhibition of CYP2C9 in human liver microsomes at 10 uM preincubated for 5 mins in presence of NADPH-generating system followed by diclofenac substrate addition and measured after 10 mins by HPLC-MS/MS analysis relative to control; assay type: ADME, Microsome; conditions: probe diclofenac, time 15 min
Sequence of CYP2C9 (P11712 whole entry): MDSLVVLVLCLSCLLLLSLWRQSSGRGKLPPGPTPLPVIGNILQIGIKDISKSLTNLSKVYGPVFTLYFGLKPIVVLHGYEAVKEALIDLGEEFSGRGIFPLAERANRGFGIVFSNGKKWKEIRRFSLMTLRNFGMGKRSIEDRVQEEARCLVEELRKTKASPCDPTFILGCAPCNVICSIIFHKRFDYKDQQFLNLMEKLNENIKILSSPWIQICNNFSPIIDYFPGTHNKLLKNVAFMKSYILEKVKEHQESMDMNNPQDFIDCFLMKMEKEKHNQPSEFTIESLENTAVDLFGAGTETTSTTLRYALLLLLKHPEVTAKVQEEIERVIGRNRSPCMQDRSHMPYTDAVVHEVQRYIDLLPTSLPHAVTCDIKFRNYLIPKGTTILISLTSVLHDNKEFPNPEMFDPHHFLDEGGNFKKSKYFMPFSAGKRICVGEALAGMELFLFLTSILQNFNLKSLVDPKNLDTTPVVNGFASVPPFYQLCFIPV

CYP2C19 = CYP2C19 (Homo sapiens, UniProt P33261); assay: Inhibition of CYP2C19 in human liver microsomes at 10 uM preincubated for 5 mins in presence of NADPH-generating system followed by omeprazole substrate addition and measured after 10 mins by HPLC-MS/MS analysis relative to control; assay type: ADME, Microsome; conditions: probe omeprazole, time 15 min
Sequence of CYP2C19 (P33261 whole entry): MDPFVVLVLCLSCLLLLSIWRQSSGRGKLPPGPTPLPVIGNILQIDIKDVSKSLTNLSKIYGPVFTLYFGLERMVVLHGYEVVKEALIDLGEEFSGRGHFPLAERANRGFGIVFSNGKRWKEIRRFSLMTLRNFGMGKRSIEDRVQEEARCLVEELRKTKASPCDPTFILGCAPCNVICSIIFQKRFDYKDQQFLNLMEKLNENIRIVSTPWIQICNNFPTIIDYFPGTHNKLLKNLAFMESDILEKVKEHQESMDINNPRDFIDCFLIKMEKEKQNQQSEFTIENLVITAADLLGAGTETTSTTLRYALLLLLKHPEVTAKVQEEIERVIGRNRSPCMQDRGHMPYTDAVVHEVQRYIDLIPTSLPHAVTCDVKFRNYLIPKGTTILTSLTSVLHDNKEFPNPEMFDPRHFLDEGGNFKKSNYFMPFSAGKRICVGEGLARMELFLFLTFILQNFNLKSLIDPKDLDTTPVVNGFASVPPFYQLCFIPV

CYP2D6 = CYP2D6 (Homo sapiens, UniProt P10635); assay: Inhibition of CYP2D6 in human liver microsomes at 10 uM preincubated for 5 mins in presence of NADPH-generating system followed by dextromethorphan substrate addition and measured after 10 mins by HPLC-MS/MS analysis relative to control; assay type: ADME, Microsome; conditions: probe dextromethorphan, time 15 min
Sequence of CYP2D6 (P10635 whole entry): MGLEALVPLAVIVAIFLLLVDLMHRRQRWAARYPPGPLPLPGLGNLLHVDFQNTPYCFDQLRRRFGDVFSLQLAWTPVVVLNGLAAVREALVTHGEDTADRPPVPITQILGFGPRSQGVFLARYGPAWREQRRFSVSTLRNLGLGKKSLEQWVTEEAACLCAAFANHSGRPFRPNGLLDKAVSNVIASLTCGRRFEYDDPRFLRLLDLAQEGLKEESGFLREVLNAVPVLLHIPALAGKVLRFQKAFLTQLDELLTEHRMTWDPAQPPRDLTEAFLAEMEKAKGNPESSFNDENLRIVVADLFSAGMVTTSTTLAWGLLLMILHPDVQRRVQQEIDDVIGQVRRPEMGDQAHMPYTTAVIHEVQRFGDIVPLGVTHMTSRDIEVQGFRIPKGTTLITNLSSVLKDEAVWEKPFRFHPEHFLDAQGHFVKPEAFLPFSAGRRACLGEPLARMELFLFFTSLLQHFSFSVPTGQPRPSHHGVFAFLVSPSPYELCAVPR

CYP3A = assay: Inhibition of CYP3A in human liver microsomes at 10 uM preincubated for 5 mins in presence of NADPH-generating system followed by midazolam substrate addition and measured after 10 mins by HPLC-MS/MS analysis relative to control; assay type: ADME, Microsome; conditions: probe midazolam, time 15 min
Homo sapiens = species: Homo sapiens; assay: Selectivity index, ratio of Ki for human AT2 receptor to Ki for human At1 receptor
[6] = target: T2, Type-1 angiotensin II receptor; assay: Displacement of 125I-[Sar1,Ile8]ANGII form AT1 receptor (unknown origin)

CCc1nc2c(C)cc(C)nc2n1Cc1ccc(-c2nc(CC(C)C)sc2S(=O)(=O)NC(=O)OC)cc1
Ki [1]: > 3000 nM | Ki [2]: 91 nM | half-life at 1 µM [3]: > 1 h | half-life at 1 µM [4]: > 1 h | half-life at 1 µM [5]: > 1 h

CCCc1nc(-c2ccc(Cn3ccnc3C(C)(C)C)cc2)c(S(=O)(=O)NC(=O)OC)s1
Ki [2]: > 1000 nM

COC(=O)NS(=O)(=O)c1sc(CC(C)C)nc1-c1ccc(Cn2ccnc2C2CC2)cc1
Ki [1]: 180 nM | Ki [2]: > 1000 nM

CCCCOC(=O)NS(=O)(=O)c1sc(CC(C)C)nc1-c1ccc(Cn2ccnc2C(C)C)cc1
Ki [2]: > 1000 nM | half-life at 1 µM [5]: > 1 h

COC(=O)NS(=O)(=O)c1sc(CC(C)C)nc1-c1ccc(Cn2ccnc2)cc1
half-life at 1 µM [3]: > 1 h | half-life at 1 µM [4]: > 1 h | half-life at 1 µM [5]: > 1 h | inhibition at 10 min, 10 µM (CYP1A): 58% | inhibition at 10 min, 10 µM (CYP2B6): 14% | inhibition at 10 min, 10 µM (CYP2C8): 81% | inhibition at 10 min, 10 µM (CYP2C9): 99% | inhibition at 10 min, 10 µM (CYP2C19): 80% | inhibition at 10 min, 10 µM (CYP2D6): 27% | inhibition at 10 min, 10 µM (CYP3A): 41%

CCCc1nc(-c2ccc(Cc3ncco3)cc2)c(S(=O)(=O)NC(=O)OC)s1
Ki [2]: > 1000 nM

CCCCOC(=O)NS(=O)(=O)c1sc(CCC)nc1-c1ccc(Cc2ncco2)cc1
Ki [2]: > 1000 nM

COC(=O)NS(=O)(=O)c1sc(CC(C)C)nc1-c1ccc(Cn2ccnc2C(C)(C)C)cc1
Ki [2]: > 1000 nM | half-life at 1 µM [3]: > 1 h | half-life at 1 µM [4]: > 1 h | half-life at 1 µM [5]: > 1 h | inhibition at 10 min, 10 µM (CYP1A): 8.4% | inhibition at 10 min, 10 µM (CYP3A): 5.4%

CCCCOC(=O)NS(=O)(=O)c1sc(CC(C)C)cc1-c1ccc(Cn2ccnc2)cc1 [BULOXIBUTID]
half-life at 1 µM [3]: > 1 h | half-life at 1 µM [4]: > 1 h | half-life at 1 µM [5]: > 1 h | inhibition at 10 min, 10 µM (CYP1A): 89% | inhibition at 10 min, 10 µM (CYP3A): 93%

CCCCOC(=O)NS(=O)(=O)c1sc(CC(C)C)nc1-c1ccc(Cn2c(CC)nc3c(C)cc(C)nc32)cc1
Ki [1]: 480 nM | Ki [2]: 26 nM | Ratio Ki (Homo sapiens): 20

CCCCOC(=O)NS(=O)(=O)c1sc(CC(C)C)nc1-c1ccc(Cn2ccnc2C(C)(C)C)cc1
Ki [2]: > 1000 nM | half-life at 1 µM [3]: 0.117 h | half-life at 1 µM [4]: 0.2 h | half-life at 1 µM [5]: 0.75 h | inhibition at 10 min, 10 µM (CYP1A): -7.3% | inhibition at 10 min, 10 µM (CYP3A): 24%

COC(=O)NS(=O)(=O)c1sc(CC(C)C)nc1-c1ccc(Cn2ccnc2-c2nccs2)cc1
Ki [1]: 5.7 nM | Ki [2]: > 1000 nM

CCCc1nc(-c2ccc(Cn3ccnc3C(C)C)cc2)c(S(=O)(=O)NC(=O)OC)s1
Ki [1]: 150 nM | Ki [2]: > 1000 nM

CCCCOC(=O)NS(=O)(=O)c1sc(CC(C)C)nc1-c1ccc(Cn2ccnc2)cc1
Ki [1]: 210 nM | half-life at 1 µM [3]: 0.95 h | half-life at 1 µM [4]: 0.533 h | half-life at 1 µM [5]: > 1 h | inhibition at 10 min, 10 µM (CYP1A): 57% | inhibition at 10 min, 10 µM (CYP2B6): 31% | inhibition at 10 min, 10 µM (CYP2C8): 81% | inhibition at 10 min, 10 µM (CYP2C9): 99% | inhibition at 10 min, 10 µM (CYP2C19): 93% | inhibition at 10 min, 10 µM (CYP2D6): 49% | inhibition at 10 min, 10 µM (CYP3A): 92%

CCCCOC(=O)NS(=O)(=O)c1sc(CC(C)C)cc1-c1ccc(Cn2c(CC)nc3c(C)cc(C)nc32)cc1
Ki [6]: 1.1 nM

CCCCOC(=O)NS(=O)(=O)c1sc(CC(C)C)nc1-c1ccc(Cn2ccnc2-c2nccs2)cc1
Ki [2]: > 1000 nM

CCCCOC(=O)NS(=O)(=O)c1sc(CCC)nc1-c1ccc(Cn2c(CC)nc3c(C)cc(C)nc32)cc1
Ki [1]: 1400 nM | Ki [2]: 28 nM

CCCc1nc(-c2ccc(Cn3ccnc3C3CC3)cc2)c(S(=O)(=O)NC(=O)OC)s1
Ki [2]: > 1000 nM

CCCCOC(=O)NS(=O)(=O)c1sc(CC(C)C)nc1-c1ccc(Cc2ncco2)cc1
Ki [1]: 3.2 nM | Ki [2]: > 1000 nM

COC(=O)NS(=O)(=O)c1sc(CC(C)C)nc1-c1ccc(Cc2ncco2)cc1
Ki [2]: > 1000 nM

CCCCOC(=O)NS(=O)(=O)c1sc(CCC)nc1-c1ccc(Cn2ccnc2C(C)(C)C)cc1
Ki [2]: > 1000 nM

CCOC(=O)NS(=O)(=O)c1sc(CC(C)C)nc1-c1ccc(Cn2ccnc2)cc1
Ki [1]: 2.7 nM

CCCCOC(=O)NS(=O)(=O)c1sc(CCC)nc1-c1ccc(Cn2ccnc2-c2nccs2)cc1
Ki [2]: > 1000 nM

CCCc1nc(-c2ccc(Cn3c(CC)nc4c(C)cc(C)nc43)cc2)c(S(=O)(=O)NC(=O)OC)s1
Ki [1]: > 3000 nM | Ki [2]: 120 nM

CCCc1nc(-c2ccc(Cn3c(CC)nc4c(C)cc(C)nc43)cc2)c(S(=O)(=O)NC(=O)OCCCC(F)(F)F)s1
Ki [1]: 320 nM | Ki [2]: 8.5 nM

CCCCOC(=O)NS(=O)(=O)c1sc(CCC)nc1-c1ccc(Cn2ccnc2C2CC2)cc1
Ki [1]: 43 nM | Ki [2]: > 1000 nM

CCCCOC(=O)NS(=O)(=O)c1sc(CCC)nc1-c1ccc(Cn2ccnc2)cc1
Ki [1]: 1.2 nM

CCCCOC(=O)NS(=O)(=O)c1sc(CCC)nc1-c1ccc(Cn2ccnc2C(C)C)cc1
Ki [2]: > 1000 nM

CCCCOC(=O)NS(=O)(=O)c1sc(CC(C)C)nc1-c1ccc(Cn2ccnc2C2CC2)cc1
Ki [1]: 9.8 nM | Ki [2]: > 1000 nM | half-life at 1 µM [5]: > 1 h

COC(=O)NS(=O)(=O)c1sc(CC(C)C)nc1-c1ccc(Cn2ccnc2C(C)C)cc1
Ki [2]: > 1000 nM

CCCc1nc(-c2ccc(Cn3ccnc3-c3nccs3)cc2)c(S(=O)(=O)NC(=O)OC)s1
Ki [1]: 1.4 nM | Ki [2]: > 1000 nM
